This is an account of results in patent publication US20080200433A1, “Molecular Chaperone Function Regulator” (priority 2004, published 2008).

Assay [1] has as its system HSP70. The experiment in a line: Induction of HSP70 in T-47D cells (Western blot). It is filed as cell-based, human. The note with it: 10 μM, 9 hr; for HSP70 expression, Experiment 2 (T/C, %): control = 100, Experiment 2; for HSP70 expression, Experiment 1 (T/C, %): control = 100, Experiment 1. How it is done: (Method) T-47D cells were cultured in a 12-well plate and, at the time point when the cells grew to about 70-80%, compounds A, B, C, D, E and F were each added to 10 μM.
DMSO (0.1%) was added to the control. After the addition, the cells were collected 9 hr later and cell extracts were prepared. Expression of HSP70 protein in the cell extracts was examined by Western blot using an HSP70 specific antibody. T/C (%) was determined using the amount of chemical luminescence on a PVDF film due to an HRP-labeled secondary antibody as the HSP70 expression amount and HSP70 expression amount of the cells in the control well as 100.

The next assay relates to ubiquitinated protein. The experiment in a line: Induction of ubiquitinated protein in T-47D cells (Western blot). It is filed as cell-based, human. The note with it: vs DMSO control (FIG. 7). How it is done: DMSO (0.1%) was added to the control. After the addition, the cells were collected 1, 3, 6 and 24 hr later and cell extracts were prepared. Expression of ubiquitinated protein in the cell extracts was examined by Western blot using a ubiquitin specific antibody. T/C (%) was determined using the amount of chemical luminescence on a PVDF film due to an HRP-labeled secondary antibody as the ubiquitinated protein expression amount and the expression amount of the cell extract in the control well as 100.

The test system of assay [2] is HSP70. The experiment in a line: Induction of HSP70 in various human tumor-derived cells (Western blot). In kind it is cell-based. The following applies: TE-8, NCI-H520, HPAC, DU145, KPL-4, MKN-45, HL-60 and DLD-1 cells, 10 μM, 9 hr, vs DMSO control (FIG. 2). The protocol: (Method) As to the induction of HSP70 by compound A, induction in various human tumor cells was examined.
TE-8 cell, NCI-H520 cell, HPAC cell, DU145 cell, KPL-4 cell, MKN-45 cell, HL-60 cell and DLD-1 cell were each were cultured in a 12-well plate.
DMSO (0.1%) was added to a control well. After the addition, the cells were collected 9 hr later and cell extracts were prepared. Expression of HSP70 protein in the tumor cell extracts was examined by Western blot using an HSP70 specific antibody.

Assay [3] relates to human prostate cancer-derived DU 145 cells. The experiment in a line: Cell growth suppression by combined hyperthermic treatment and compound (XTT). In kind it is cell-based. The following applies: 0.37-10 μM, 43° C. 4 hr vs 37° C., then 24 hr culture, XTT (FIG. 5). The protocol:
(Method) Using human prostate cancer-derived DU 145 cells, the effect of compound A on the cell growth suppressive action during hyperthermic treatment was examined. DU 145 cells were cultured at 1×10^4 cells/well in two 96 well plates. The next day, compound A was added to each plate to 0.37, 1.1, 3.3 and 10 μM, one plate was incubated for 4 hr in a 5% CO2 incubator set to 43° C. (heat treatment), and the other plate was incubated in the same manner for 4 hr in a 5% CO2 incubator set to 37° C. After 4 hr, the wells were washed 3 times with saline, a growth medium was added and cultured in a 5% CO2 incubator at 37° C. for 24 hr.
The cell growth activity was measured by the dye method using XTT as in Example 4. That is, after the culture, XTT was added to each well and, 4 hr later, the absorbance at 492 nm was measured.
T/C (%) was determined from the following formula with the absorbance of the control well in the plate without the heat treatment as 100.
T/C (%)=[absorbance of heat-treated control well or compound-treated well÷absorbance of control well without heat treatment]×100

In assay [4] the test system is human breast cancer-derived MCF-7 implanted in nude mouse. The experiment in a line: Antitumor effect on human breast cancer-derived MCF-7 implanted in nude mouse. In kind it is in vivo. The note with it: 100 mg/kg orally once a day for 2 weeks, vs solvent control, Dunnett's test p<0.05 (FIG. 6). How it is done:
(Method) Human breast cancer-derived MCF-7 cells were subcutaneously implanted in female nude mouse purchased from CLEA Japan, Inc. The effect of compound A on the growth was examined. A 17β-estradiol solution was added dropwise to a small piece of glass microfibre filter GF/B (Whatman, #1821 05) to give a pellet (500 μg/filter). The pellet was subcutaneously implanted in the neck of female Balb/c nude mouse, and MCF-7 cells were subcutaneously implanted in the right back at 5×10^6 cells/mouse. From 7 days after the implantation, compound A was orally administered at 30 mg/kg and 100 mg/kg to nude mice (5 per group) once a day for 2 weeks.
The 0.5% tragacanth solution used as a solvent was similarly administered to the control. The next day of the final administration, the nude mice were sacrificed under anesthesia, and the subcutaneous tumor was isolated and weighed. The mean tumor weight and standard error of each group were calculated, and statistically analyzed by the Dunnett's test and using the solvent administration group as a control.

Assay [5] has as its system client proteins EGFR, HER2, ERα, AR, AKT and CDK4 of HSP90 chaperone. The experiment in a line: Suppressive action on HSP90 client protein expression in MCF-7 cells (Western blot). In kind it is cell-based, human. The note with it: 10 μM, 24 hr, vs DMSO control (FIG. 3). The protocol:
After the addition of the compound, the cells were collected and divided in two 24 hr later. Cell extracts were prepared from half the cells, and cytoplasmic fraction and nuclear fraction were prepared from the remaining half. […] Expression of client in each tumor cell extract and nuclear fraction was examined by Western blot using an antibody specific to each client.

Assay [6] relates to HSP70. The experiment in a line: Time-dependent HSP70 induction in A-431 cells (Western blot). In kind it is cell-based, human. The note with it: 10 μM, vs DMSO control (FIG. 1). How it is done:
DMSO (0.1%) was added to the control. After the addition, the cells were collected 6, 9, 12 and 24 hr later and cell extracts were prepared. Expression of HSP70 protein in the cell extracts was examined by Western blot using an HSP70 specific antibody. T/C (%) was determined using the amount of chemical luminescence on a PVDF film due to an HRP-labeled secondary antibody as the HSP70 expression amount and HSP70 expression amount of the cells in the control well as 100.

The test system of assay [7] is human breast cancer-derived MCF-7 cell. The experiment in a line: Suppressive effect on estradiol (E2)-dependent cell growth (XTT). It is filed as cell-based. The following applies: 10 nM E2, Day 10, XTT; compound A 0.037-3 μM, tamoxifen 0.062-5 μM (FIG. 4). The source says:
(Method) Using human breast cancer-derived MCF-7 cell that expresses estrogen receptor and grows in response to estradiol (E2, 17β-Estradiol, Cat. #E 1024, Sigma Ltd.), the effect of compound A on the cell growth in the presence of E2 was examined. As the control compound, tamoxifen (Cancer Res., 62, 2474-2477, 2002) (Cat. #T 9262, Sigma Ltd.) known to suppress growth of human breast cancer-derived MCF-7 cell by E2 stimulation was used. MCF-7 cells were suspended in a phenol red non-addition DME-F12 mixed medium containing 5% fetal calf serum treated with activated carbon, and cultured at 2×10^4 cells/well in a 24 well plate. […]
The cell growth activity was measured on Day 10 by the dye method using XTT.
That is, after the completion of the culture, XTT was added to each well and, after color development for 4 hr, the reaction mixture was transferred to a 96 well plate, and the absorbance at 492 nm was measured.
The suppression rate was calculated from the following formula.
Suppression rate (%)={1−[(absorbance of compound addition well in the presence of E2)−(absorbance of control well without E2 addition)]÷[(absorbance of control well in the presence of E2)−(absorbance of control well without E2 addition)]×100

Regarding `C=CC(=O)Nc1cc2c(Nc3ccc(F)c(Cl)c3)ncnc2cc1C#CC(C)(C)N1CCN(CCOC)CC1` [B, N-([4-(3-Chloro-4-fluorophenyl)amino]-7-{3-[4-(2-methoxyethyl)-1-piperazinyl]-3-methyl-1-butynyl}-6-quinazolinyl)acrylamide], in the assay with HSP70 [1], the “HSP70 expression, Experiment 2 (T/C, %)” value worked out at 482%.
Consider `C=CC(=O)Nc1cc2c(Nc3ccc(F)c(Cl)c3)ncnc2cc1C#CCN1CCN(C)CC1` [C, N-{4-[(3-Chloro-4-fluorophenyl)amino]-7-[3-(4-methyl-1-piperazinyl)-1-propynyl]-6-quinazolinyl}acrylamide], for which the “HSP70 expression, Experiment 1 (T/C, %)” value with HSP70 [1] turned out to be 207%.
For `C=CC(=O)Nc1cc2c(Nc3cccc(C#N)c3)ncnc2cc1C#CC(C)(C)N1CCN(C)CC1` [D, N-{4-[(3-Cyano-phenyl)amino]-7-[3-methyl-3-(4-methyl-1-piperazinyl)-1-butynyl]-6-quinazolinyl}acrylamide], the “HSP70 expression, Experiment 2 (T/C, %)” value in the assay on HSP70 [1] came out at 446%.
Regarding `C=CC(=O)Nc1cc2c(Nc3ccc(F)c(Cl)c3)ncnc2cc1C#CC1(N2CCN(C)CC2)CCOCC1` [E, N-{4-[(3-Chloro-4-fluorophenyl)amino]-7-[4-(4-methyl-1-piperazinyl)-4-tetrahydropyranylethynyl]-6-quinazolinyl}acrylamide], the “HSP70 expression, Experiment 1 (T/C, %)” value in the assay with HSP70 [1] turned out to be 172%.
With `CCOc1cc2ncnc(Nc3ccc(F)c(Cl)c3)c2cc1C#CC(C)(C)N(C)C1CCN(C)CC1` [F, (3-Chloro-4-fluorophenyl)-(7-ethoxy-6-{3-methyl-3-[methyl-(1-methyl-4-piperidinyl)amino]-1-butynyl}-4-quinazolinyl)amine], in the assay with HSP70 [1], the “HSP70 expression, Experiment 1 (T/C, %)” value worked out at 141%.
In the case of `CC(C)C[C@H](NC(=O)[C@H](Cc1ccccc1)NC(=O)c1cnccn1)B(O)O` [bortezomib, reference compound], the “amount of ubiquitinated protein” value in the assay with ubiquitinated protein (3 μM, 1, 3, 6 and 24 hr) is “remarkably appeared from 3 hr after the treatment”.
Take `C=CC(=O)Nc1cc2c(Nc3ccc(F)c(Cl)c3)ncnc2cc1C#CC(C)(C)N1CCN(C)CC1` [compound A]: in the assay on HSP70 [2], the HSP70 expression result is given as “increased”. For the same compound, the “cell death due to heat shock” value in assay [3] is on record as “cell death due to heat shock is enhanced”. Further, the “HSP70 expression, Experiment 1 (T/C, %)” value in the assay with HSP70 [1] is 299%. The “HSP70 expression, Experiment 2 (T/C, %)” value in the assay on HSP70 [1] is on record as 895%. Further, the tumor weight entry in assay [4] was “significantly decreased”. The “expression of HSP90 client proteins” value in assay [5] is reported as “decreased expression”. Further, the “expression of HSP70” value with HSP70 [6] (6 hr to 12 hr after treatment) is reported as “increased in a time-dependent manner”; in the assay with HSP70 [6] (24 hr after treatment), “markedly decreased”. In addition, the “amount of ubiquitinated protein” value with ubiquitinated protein (1 μM, 1, 3, 6 and 24 hr) is given as “did not occur until after 24 hr”; in the assay with ubiquitinated protein (3 μM, 1, 3, 6 and 24 hr), “increased from 6 hr after the treatment”; in the assay on ubiquitinated protein (10 μM, 1, 3, 6 and 24 hr) it was “increased from 6 hr after the treatment”. Also, the “growth of MCF-7 cells by E2 stimulation” value in assay [7] was “suppresses the growth”.
In the case of `COc1cc2ncnc(Nc3ccc(F)c(Cl)c3)c2cc1OCCCN1CCOCC1` [gefinitib, 4-(3′-Chloro-4′-fluoroanilino)-7-methoxy-6-(3-morpholinopropoxy)quinazoline, reference compound], in the assay on HSP70 [2], the HSP70 expression result is reported as “did not show a clear increase”.
`CC/C(=C(\c1ccccc1)c1ccc(OCCN(C)C)cc1)c1ccccc1` [tamoxifen, reference compound]: the “growth of MCF-7 cells by E2 stimulation” value in assay [7] is reported as “suppresses the growth”.
